# Source: patent publication US12297224B2, “Crystal form, preparation method, and application of 4'-substituted nucleoside” (Henan Genuine Biotech Co., Ltd., priority 2018, dated 2025)
# Where two headings read alike, the source gives them in different places.
# Assays:
# in vitro = type: cell-based; conditions: human
# Procedure: (§1) CD4^+ T cells (Hut/CCR5) were plated into the wells of a 96-well plate ([…]), followed by addition of different compounds to be tested; the 96-well plate was incubated at 37° C. in an incubator for 3 days; 20 μL of MTT solution was added into the wells ([…]) of the 96-well plate; the 96-well plate was incubated at 37° C. in the incubator for 4 hours; 100 μL of Formazan solution was added into the wells of the 96-well plate; the 96-well plate was incubated at 37° C. in the incubator until the complete dissolution of Formazan was observed by a common optical microscope; and the absorbance of the solution was measured at 570 nm (as shown in FIGS. 2 and 4).
# (§2) The cytotoxicity of the compound Ig-TP on CD4^+ T cells (Hut/CCR5) was measured using MTT assay.
# HIV-1 (HIV-luc/JRFL) = assay: microbe, parasite or virus in culture; type: cell-based; conditions: for EC50: read-out: anti-HIV activity EC50 (50% effective concentration)
# Excerpt: The plasmids used for packaging pseudotyped single-cycle infectious HIV-1 (HIV-luc/JRFL) are as follows: the plasma pLAI-Aenv-Luc contains HIV-1 isolate in which Env and Vpr genes are deleted and luciferase gene is inserted into the Nef locus; and the plasma pJRFL contains CCR5-tropic HIV-1 env gene; the two plasmas are co-transfected into HEK293T cells; the supernatant was collected, filtered, and packaged; and the virion capture was quantified by […] ELISA.
# (§3) CD4^+ T cells (Hut/CCR5) were cultured in RPMI 1640 medium (Gibco) containing 10% fetal bovine serum (Gibco), 100 U/mL penicillin (Invitrogen), and 100 […] (Invitrogen). 1×10^5 Hut/CCR5 cells were added to the compound Ia or Ib, infected with HIV-luc/JRFL (1 ng p24gag), incubated at 37° C. for 3 hours, washed to remove free virus, and resuspended in cell culture medium, followed by addition of the corresponding compound to be tested, incubated at 37° C. for 3 days, and collected for measurement of the luciferase activity and calculation of the percentage of viral inhibition.
# as §3, with “in” for “in RPMI”, “Ig-TP (CL-002-TP),” for “Ia or Ib,”, “virus” for “viral”
# [1] = Drug concentration in PBMC after oral administration in rhesus monkeys; type: in vivo; design: concentration of Ig-TP in PBMC: unit not given here; conditions: for Drug concentration in PBMC, Compound 3TC-TP: oral 3TC 20 mg/kg
# Procedure: The PBMC was separated from the remaining venous blood with Ficoll-Paque separation medium, condensed to 0.3 mL of cell suspension, counted, and stored frozen below −20° C.
# The PBMC sample was crushed with an ultrasonic cell crusher, followed by addition of 3 times volume of acetonitrile, vortexed for 60 seconds, followed by 1 volume of the water, vortexed for 60 seconds, and centrifuged at 3000 rpm for 5 minutes; the supernatant was aspirated, transferred into a 10 mL round-bottom glass tube, dried in a stream of nitrogen at 40° C., and redissolved in 500 μL of methanol solution (methanol: water=2:8 (v/v)); the resulting solution was vortexed for 60 seconds, transferred into a 1.5 mL EP tube, centrifuged at 13000 rpm for 5 minutes, filtered, and centrifuged to obtain […] of supernatant for […] analysis.
# [2] = Drug concentration in plasma after oral administration in rhesus monkeys; type: in vivo; conditions: oral 6 mg/kg compound Ia, 24 hours
# HIV = conditions: literature (Michailidis et al 2009); read-out: anti-HIV EC50; cited from earlier work
# CD4+ T cells (Hut/CCR5) = assay: in vitro; type: cell-based
# Procedure: as §1, §2
# [3] = Human immunodeficiency virus 1, Hut/CCR5, 72 h
smiles,measurement,setting,value
[N-]=[N+]=NC1(CO)OC(n2cnc3c(N)nc(F)nc32)C(F)C1O (stereo not drawn) [Ib],CC50 at 3 days,in vitro,> 149000 nM
same,EC50,HIV-1 (HIV-luc/JRFL); [3],0.62 nM
"Nc1ccn([C@@H]2CS[C@H](COP(=O)(O)OP(=O)(O)OP(=O)(O)O)O2)c(=O)n1 [Compound 3TC-TP, reference compound]","Drug concentration in PBMC, Compound 3TC-TP",[1]; 1 h,0.51 pmol/10^6 cells
same,"Drug concentration in PBMC, Compound 3TC-TP",[1]; 6 h,2.45 pmol/10^6 cells
C#CC1(CO)OC(n2cnc3c(N)nc(F)nc32)C(F)C1O (stereo not drawn) [Compound Ia],CC50 at 3 days,in vitro,> 8000 nM
same,compound Ia in plasma,[2],undetectable
same,EC50,HIV-1 (HIV-luc/JRFL); [3],0.9 nM
"C#C[C@]1(CO)O[C@@H](n2cnc3c(N)ncnc32)C[C@@H]1O [EdA, 4′-ethynyl-2′-deoxyadenosine]",EC50,HIV,11 nM
[N-]=[N+]=NC1(COP(=O)(O)OP(=O)(O)OP(=O)(O)O)OC(n2ccc(N)nc2=O)CC1O (stereo not drawn) [Compound Ig-TP],"Drug concentration in PBMC, Compound Ig-TP","[1]; oral compound Ig 1 mg/kg, 1 h",0.39 pmol/10^6 cells
same,"Drug concentration in PBMC, Compound Ig-TP","[1]; oral compound Ig 1 mg/kg, 6 h",2.10 pmol/10^6 cells
same,"Drug concentration in PBMC, Compound Ig-TP","[1]; oral compound Ig 1 mg/kg, 24 h",0.29 pmol/10^6 cells
same,"Drug concentration in PBMC, Compound Ig-TP","[1]; oral compound Ig 1 mg/kg, 72 h",0.66 pmol/10^6 cells
same,"Drug concentration in PBMC, Compound Ig-TP","[1]; oral compound Ig 1 mg/kg, 120 h",0.54 pmol/10^6 cells
same,"Drug concentration in PBMC, Compound Ig-TP","[1]; oral compound Ig 6 mg/kg, 1 h",0.23 pmol/10^6 cells
same,"Drug concentration in PBMC, Compound Ig-TP","[1]; oral compound Ig 6 mg/kg, 6 h",4.07 pmol/10^6 cells
same,"Drug concentration in PBMC, Compound Ig-TP","[1]; oral compound Ig 6 mg/kg, 24 h",0.44 pmol/10^6 cells
same,"Drug concentration in PBMC, Compound Ig-TP","[1]; oral compound Ig 6 mg/kg, 72 h",1.85 pmol/10^6 cells
same,"Drug concentration in PBMC, Compound Ig-TP","[1]; oral compound Ig 6 mg/kg, 120 h",1.35 pmol/10^6 cells
same,concentration of Ig-TP in PBMC,"[1]; rhesus monkeys, oral 6 mg/kg compound Ig, 120 hours (5 days)",1.35
same,CC50,CD4+ T cells (Hut/CCR5),8130 nM
same,cytotoxicity CC50,CD4+ T cells (Hut/CCR5),"2,328 ng/ml"
same,inhibition of HIV viral proliferation IC50,"HIV-1 (HIV-luc/JRFL); Hut/CCR5 cells, HIV-luc/JRFL",0.373 ng/mL
same,EC50,"HIV-1 (HIV-luc/JRFL); Hut/CCR5 cells, HIV-luc/JRFL, 3 days",1.3 nM
same,IC50,"HIV-1 (HIV-luc/JRFL); Hut/CCR5 cells, HIV-luc/JRFL, read-out: inhibition of HIV viral proliferation IC50",1.3 nM
